# Read-outs that look alike come from different tables or passages of the source.
# How the values were obtained:
# [1] = tested on: reserpine induced hypothermia (central nervous system); test: Action on the central nervous system: reserpine induced hypothermia in mice; type: in vivo; details: Mus musculus, oral, read-out: DE50 oral (dose exerting an antihypothermic effect equal to 50% of that caused by 15 mg/kg oral imipramine)
# Method: The activity of the products on the central nervous system has been shown by the test of reserpine induced hypothermia in mice, according to the method of D. M. Asken, Life Sciences, 1963, vol. 2, p. 725, the disclosure of which is incorporated herein by reference,
# The results are expressed by a DE50 or dose of product, in mg/kg, capable of exerting an antihypothermic effect equal to 50% of the antihypothermic effect caused by 15 mg/kg (oral) of imipramine.
# serum triglycerides = test: Hypotriglyceridemiant activity: olive oil induced experimental hypertriglyceridemia in fasting rats; type: in vivo, male rats
# Method: Journal of Pharmacology, 1973, 23, 131, the disclosure of which is incorporated herein by reference.
# The rats are killed two hours after the administration of the oil by decapitation. The serum is separated by centrifuging and the triglycerides are determined on an amount of 0.2 ml of serum by extraction with a heptane-isopropanol mixture and colorimetry according to the method of Van Handel et al., J. Lab. and Clin. Med., 1957, 50, 152-157, by using an assembly of analytical reagents known commercially as "Triclycerides-kit Bio Merieux".
# [2] = Acute toxicity by oral administration; details: in vivo; male mouse CD1, oral, after three days of observation
# Excerpt: The acute toxicities of the compounds according to the invention have been determined on the male mouse CD1 (Charles River) by oral administration. The LD50 have been calculated, after three days of observation, by the cumulative method of J. J. Reed et al. (Am. J. Hyg., 1938, 27, 493), the disclosure of which is incorporated herein by reference.
# [3] = Rattus norvegicus, po, read-out: % of inhibition (relative reduction of the proportion of serum triglycerides with respect to control animals)
# [4] = rat, oral, 100 mg/kg, 2 h before 20 ml/kg olive oil, Student Fischer T test 0.01, read-out: % of inhibition (relative reduction of the proportion of serum triglycerides with respect to control animals)
Compound,ED50 [1],LD50 at 72 h [2],other results
"O[C@H](c1ccccc1)[C@@H]1CCCN1 (relative stereo) [Example 1, α-phenyl-2-pyrrolidine-methanol (erythro isomer)]",4.5 mg/kg,,inhibition at 50 mg/kg (serum triglycerides; [3]): 33%
"O[C@H](c1ccccc1)[C@H]1CCCN1 (relative stereo) [Example 2, α-phenyl-2-pyrrolidine methanol (threo isomer)]",> 150 mg/kg,600 mg/kg,"inhibition at 6.25 mg/kg (serum triglycerides; [3]): 41%; inhibition at 50 mg/kg (serum triglycerides; [3]): 45%; hypotriglyceridemiant activity (in words) (serum triglycerides; rat, oral, Example 2 at 6.25 mg/kg): still very active"
"O[C@H](c1ccccc1)[C@H]1CCCN1Cc1ccccc1 (relative stereo) [Example 3, α-phenyl-2-(1-benzyl-pyrrolidine) methanol (threo isomer)]",,270 mg/kg,
"CN1CCC[C@@H]1[C@H](O)c1ccccc1 (relative stereo) [Example 4, α-phenyl-2-(1-methyl-pyrrolidine)methanol (threo isomer)]",,800 mg/kg,
"OCCN1CCC[C@@H]1[C@H](O)c1ccccc1 (relative stereo) [Example 5, α-phenyl-2-(1-β-hydroxyethyl-pyrrolidine)methanol(threo isomer)]",,675 mg/kg,inhibition at 100 mg/kg (serum triglycerides; [4]): 45%
"O[C@H](c1ccc(Cl)cc1)[C@@H]1CCCN1 (relative stereo) [Example 6, α-(4-chloro-phenyl)-2-pyrrolidine methanol (erythro isomer)]",18 mg/kg,675 mg/kg,
"O[C@H](c1ccc(Cl)cc1)[C@H]1CCCN1 (relative stereo) [Example 7, α-(4-chloro-phenyl)-2-pyrrolidine methanol (threo isomer)]",> 50 mg/kg,400 mg/kg,inhibition at 100 mg/kg (serum triglycerides; [4]): 41%
"O[C@H](c1ccc(C2CCCCC2)cc1)[C@@H]1CCCN1 (relative stereo) [Example 8, α-(4-cyclohexyl-phenyl)-2-pyrrolidine methanol (erythro isomer)]",,> 900 mg/kg,
"CC(C)(C)c1ccc([C@@H](O)[C@@H]2CCCN2)cc1 (relative stereo) [Example 10, α-(4-tertiobutyl-phenyl)-2-pyrrolidine methanol (erythro isomer)]",,600 mg/kg,
"O=C(O)c1cccnc1 [Nictotinic acid, nicotinic acid, reference compound]",,,inhibition at 100 mg/kg (serum triglycerides; [3]): 50%

# Source: patent US4248884A, “2-Pyrrolidine methanol derivatives utilizable as medicaments” (Pharmindustrie, priority 1978, dated 1981)
